O=[N+]([O-])c1ccc(O)c2ncccc12
solubility (mole fraction)
Settings	in acetic acid	in acetone	in acetonitrile	in ethanol	in ethyl acetate	in isopropanol	in methanol	in n-butanol	in n-propanol	in toluene
278.15 K	0.00224	0.00398	0.00113	0.000575	0.00339	0.0005	0.000443	0.000606	0.000562	0.00229
280.65 K	0.00239	0.00429	0.00124	0.000625	0.00369	0.000548	0.000486	0.000663	0.000608	0.00247
283.15 K	0.00259	0.00461	0.00137	0.000682	0.004	0.000605	0.000531	0.000726	0.000675	0.00269
285.65 K	0.0028	0.00498	0.00151	0.00075	0.00437	0.000672	0.000586	0.000797	0.000748	0.00293
288.15 K	0.00303	0.00538	0.00165	0.00082	0.00476	0.000741	0.000643	0.000867	0.000814	0.00317
290.65 K	0.00328	0.0058	0.0018	0.000901	0.00517	0.000816	0.000701	0.000961	0.000899	0.00345
293.15 K	0.00355	0.00624	0.00197	0.000988	0.00564	0.000897	0.000763	0.00105	0.00099	0.00377
295.65 K	0.00383	0.00668	0.00214	0.00108	0.0061	0.000974	0.00083	0.00116	0.00109	0.00408
298.15 K	0.00416	0.00721	0.00233	0.00118	0.00667	0.00107	0.000904	0.00128	0.00119	0.00444
300.65 K	0.00449	0.00773	0.00256	0.00128	0.00724	0.00118	0.000981	0.00139	0.00131	0.00481
303.15 K	0.00484	0.00831	0.00279	0.00139	0.00786	0.00129	0.00107	0.00153	0.00143	0.00518
305.65 K	0.0052	0.00888	0.00304	0.00152	0.00857	0.00141	0.00116	0.00166	0.00157	0.00562
308.15 K	0.00559	0.00956	0.00334	0.00166	0.00929	0.00154	0.00127	0.0018	0.0017	0.00609
310.65 K	0.00601	0.0103	0.00366	0.00182	0.01	0.00168	0.00138	0.00197	0.00186	0.0066
313.15 K	0.00649	0.0111	0.00403	0.00199	0.0109	0.00183	0.00149	0.00217	0.00204	0.00715

Source: BigSolDB 2.1
